Earlier results in patent publication US20110251239A1, “COMBINATION THERAPY FOR THE TREATMENT OF DEMENTIA” (EISAI INC., priority 2010, published 2011).

Tests used:
[1] = tested on: CYP450 enzymes (CYP1A2, -2A6, -2C9, -2D6, -2E1, -3A4)
[2] = tested on: cytochrome P450 isozymes CYP1A2, CYP2C9, CYP2E1 and CYP3A4/5

SMILES: CC12CC3CC(C)(C1)CC(N)(C3)C2 [memantine, 1-amino-3,5-dimethyl adamantane]
- inhibition of CYP450 enzymes [1]: minimal inhibition
- induction of cytochrome P450 isozymes [2]: does not induce
